Earlier results in US10980267B2, “Molecular particle superior delivery system” (priority 2018, dated 2021).

How the values were obtained:
[1] = especially child seizures
[2] = in humans, WHO report
[3] = consumed in foods and drinks

C=C(C)[C@@H]1CCC(C)=C[C@H]1c1c(O)cc(CCCCC)cc1O [CBD, cannabidiol]
effect on number of seizures [1]: reduce the number of seizures | abuse or dependence potential [2]: no effects indicative of any abuse or dependence potential | safety of consumption / toxicity [3]: completely safe to consume in foods and drinks and is considered to be non-toxic
